From patent US10450610B2, “Single nucleotide polymorphisms (SNP) and association with resistance to immune tolerance induction” (University of Tennessee Research Foundation, priority 2008, dated 2019)

Experiments:
spleen cells = assay: COX-2 inhibitor SC′236 and oral tolerance induction; spleen cell IFNγ with α1(II) CB mixture (ELISA); format: in vivo, mice; conditions: for oral tolerance induction to CII: DBA/1 mice, assessed by IFNγ production by spleen cells
Procedure: Groups of 8 mice each were gavaged on MTTHF×2 weeks in the a.m. with PBS or SC′236 (5 μg/gm in 100 μl PBS). SC′236 (Searle) is ˜2000× more inhibitory for COX-2 than for COX-1.
Four of the mice given PBS in the a.m. and 4 mice given SC′236 in the a.m. were gavaged in the p.m. with 10 μg bovine type II collagen (CII). The other 4 mice in the a.m. PBS and a.m. SC′236 group were gavaged in the p.m. with 0.1M acetic acid (HAc) the vehicle the CII was dissolved in. After these 8 day feedings, all mice were rested for 1 week and then immunized with 100 μg of CII in complete Freund's adjuvant. After 10 days, all mice were sacrificed, and spleen cells (2×10^6/ml) were isolated and set up in culture with PBS and bovine α1(II) (50 μg/ml) CB mixture. After 4 days culture, the supernatants were harvested and IFNγ levels determined by ELISA (Endogen). Since the PBS+spleen cell culture from all mice produced between 1-12 pg/ml IFNγ, only the α1(II) data are plotted. All groups were compared to Placebo control group by Student's 2 sample t test.

[1] = system: BALB/c mice and DBA/1 lac J mice; assay: Effect of commonly used immunomodulatory drugs on oral tolerance induction (oral OVA or oral bovine CII); format: in vivo; conditions: for effect on tolerance induction: oral OVA in BALB/c mice and oral bovine CII in DBA/1 lac J mice; for OT induction to CII: DBA/1 lac J mice, prednisone at 10 mg/day equivalent
Procedure: Further, studies were conducted using oral OVA (1 mg/day×5 days) in BALB/c mice and oral bovine CII (10 μg×8 doses over 14 days) in DBA/1 lac J mice to test the effects of commonly used immunomodulatory drugs on immune induction ([…], hydroxychloroquine 400 mg/day, methotrexate 17.5 mg/week, leflunomide 20 mg/day after 100 mg/day×3 loading doses, sulfasalazine 2.5 gm/day, D-penicillamine 750 mg/day, IM gold, and etanercept 25 mg twice weekly).

DBA/1 mice = assay: NSAID inhibition of oral tolerance induction to collagen II; arthritic joints scored; format: in vivo; conditions: DBA/1 mice fed CII; FIG. 7 / similar studies (data not shown)
Procedure: To determine whether tolerance induction to orally fed bovine CII in DBA/1 mice would be abrogated by orally fed NSAID, 3 groups of 20-22 DBA/1 mice were fed (by gavage) eight doses (Monday, Tuesday, Thursday, and Friday for 2 weeks) of the following: Placebo (saline) in the a.m. and Placebo (0.1 M HAc) in the p.m.; Placebo (saline) in the a.m. and 10 μg native bovine CII in the p.m.; or piroxicam (2.4 μg/gm) in the a.m. and native bovine CII (10 μg) in the p.m. After 1 week, all mice were immunized (intradermally at the base of tail) with 100 μg of bovine CII emulsified in complete Freund's adjuvant. Animals were placed in coded cages and were scored by a blinded observer twice weekly for the number of arthritic joints (joints swollen, red, and/or deformed).

NS(=O)(=O)c1ccc(-n2nc(C(F)(F)F)cc2-c2ccc(Cl)cc2)cc1 [SC′236]
oral tolerance induction to CII (spleen cells; listed as SC236): blocked oral tolerance induction
oral tolerance induction to CII (spleen cells; listed as SC'236): abrogates oral tolerance induction
IFNγ production by spleen cells stimulated by α1(II) CB digest (spleen cells; SC′236 5 μg/gm fed alone, FIG. 9): lower IFNγ production
IFNγ production by spleen cells cultured with α1(II) CB digest (spleen cells; SC′236 + CII fed, p<0.01, FIG. 9): significant increase

O=C(O)c1cc(/N=N/c2ccc(S(=O)(=O)Nc3ccccn3)cc2)ccc1O [sulfasalazine]
effect on tolerance induction [1]: did not completely suppress tolerance

C[C@]12C=CC(=O)C=C1CC[C@@H]1[C@@H]2C(=O)C[C@@]2(C)[C@H]1CC[C@]2(O)C(=O)CO [prednisone]
OT induction to CII [1]: did block OT induction to CII
effect on tolerance induction [1]: did not completely suppress tolerance

etanercept
effect on tolerance induction [1]: did not completely suppress tolerance

Cc1oncc1C(=O)Nc1ccc(C(F)(F)F)cc1 [leflunomide]
effect on tolerance induction [1]: did not completely suppress tolerance

CN(Cc1cnc2nc(N)nc(N)c2n1)c1ccc(C(=O)N[C@@H](CCC(=O)O)C(=O)O)cc1 [methotrexate]
effect on tolerance induction [1]: did not completely suppress tolerance

CCN(CCO)CCCC(C)Nc1ccnc2cc(Cl)ccc12 (centres unmarked) [hydroxychloroquine]
effect on tolerance induction [1]: did not completely suppress tolerance

CC(=O)OC[C@H]1O[C@@H]([S-])[C@H](OC(C)=O)[C@@H](OC(C)=O)[C@@H]1OC(C)=O.CCP(CC)CC.[Au+] [auranofin]
OT induction to CII [1]: did block OT induction to CII

CC(C)(S)[C@@H](N)C(=O)O [D-penicillamine]
effect on tolerance induction [1]: did not completely suppress tolerance

COc1ccc2cc(CCC(C)=O)ccc2c1 [nabumatone]
oral tolerance (OT) induction (DBA/1 mice): abrogated OT induction
